This is an account of results in PubChem BioAssay (NCI).

SMILES strings stand for the structures. Several values for one entry are separate records, joined by “and”; a condition that tells them apart may be missing. Equal entries are not always repeated.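 Grown in 96-well plates, cells were treated for 48 hours with each compound at five concentrations. Insufficient inhibition: endpoint recorded as highest concentration tested. The concentration for 50% growth inhibition is given as GI50. TGI is the concentration that stops growth completely.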

Among the test systems are HT29 colon; NCI-H522 lung; SF-268 CNS; NCI-H460 lung; LOX IMVI melanoma; OVCAR-8 ovarian; SK-MEL-2 melanoma; TK-10 renal.
What all share (experiment): NCI-60 cell line screen, 48 h

Consider `Nc1c2ccccc2nc2ccccc12` (tested in a mixture with another compound), for which the GI50 with HT29 colon is 1.08 µM; in the assay on NCI-H522 lung, 1.17 µM; with SF-268 CNS it was 2.13 µM; in the assay on NCI-H460 lung it was 2.12 µM; in the assay with LOX IMVI melanoma, 1.87 µM; in the assay with OVCAR-8 ovarian, 0.891 µM. The GI50 is 2.16 µM in the assay with SK-MEL-2 melanoma and 1.97 µM with TK-10 renal. For the same compound, the TGI in the assay on HT29 colon was 3.48 µM; with NCI-H522 lung it was 2.73 µM; in the assay with SF-268 CNS, 6.08 µM; in the assay on NCI-H460 lung, 8.99 µM; in the assay with LOX IMVI melanoma, 5.94 µM; in the assay on OVCAR-8 ovarian it was 6.44 µM. Also, the TGI is 4.23 µM in the assay with SK-MEL-2 melanoma and 5.34 µM in the assay on TK-10 renal.
`Nc1ccccc1C#Cc1ccccc1C#Cc1cnccn1`: the GI50 is 24.8 µM with HT29 colon; 9.05 µM with NCI-H522 lung; 11.7 µM in the assay on SF-268 CNS; 7.87 µM with NCI-H460 lung; 17 µM in the assay with LOX IMVI melanoma; 48 µM in the assay with OVCAR-8 ovarian. Further, the TGI with HT29 colon is 53 µM; in the assay with NCI-H522 lung it was 30.2 µM; in the assay with SF-268 CNS, 25.1 µM; with NCI-H460 lung, 20.5 µM; in the assay on LOX IMVI melanoma, 33.7 µM; with OVCAR-8 ovarian, more than 100 µM.
Take `Cn1c(=N)n[n+]([O-])c2ccccc21`: the TGI with HT29 colon was 4.88 µM and 15.1 µM; in the assay on NCI-H522 lung, 10.7 µM and 15.6 µM; with SF-268 CNS, 7.7 µM and 17.6 µM; in the assay on NCI-H460 lung, 4.53 µM and 37.5 µM; in the assay on LOX IMVI melanoma, more than 100 µM; in the assay on OVCAR-8 ovarian, 31.6 µM and > 55.3 µM. For the same compound, the TGI in the assay on SK-MEL-2 melanoma was 8.87 µM and 12.5 µM; in the assay with TK-10 renal, 70 µM and > 59.4 µM. In addition, the GI50 in the assay with SF-268 CNS was 2.67 µM and 7.11 µM; with NCI-H460 lung, 2.59 µM and 20 µM.
In the case of `N#CSc1ccc(S(N)(=O)=O)cc1`, the TGI with HT29 colon is more than 100 µM; in the assay on NCI-H522 lung it was 26.5 µM; with SF-268 CNS it was more than 100 µM; with NCI-H460 lung, more than 100 µM; in the assay on LOX IMVI melanoma, more than 100 µM; in the assay with OVCAR-8 ovarian it was more than 100 µM. Also, the TGI in the assay on SK-MEL-2 melanoma and with TK-10 renal was more than 100 µM in each case.
`CC#CC(=O)N1CC[C@@H](n2c(=O)n(-c3ccc(Oc4ccccc4)cc3)c3c(N)ncnc32)C1`: the GI50 was 34.7 µM with HT29 colon; 10.8 µM in the assay with NCI-H522 lung; 30.3 µM with SF-268 CNS; 33 µM in the assay on NCI-H460 lung; 18.6 µM with LOX IMVI melanoma; 40.6 µM with OVCAR-8 ovarian. For the same compound, the GI50 with SK-MEL-2 melanoma was 38.8 µM; in the assay with TK-10 renal, 35 µM. Besides, the TGI with HT29 colon is more than 100 µM; with NCI-H522 lung, 92.7 µM; in the assay on SF-268 CNS, more than 100 µM; in the assay with NCI-H460 lung it was more than 100 µM; with LOX IMVI melanoma, 83.4 µM; in the assay with OVCAR-8 ovarian it was more than 100 µM. Besides, the TGI in the assay with SK-MEL-2 melanoma and with TK-10 renal was more than 100 µM each time.
On to `COc1cnc2c(c1)C(=O)c1c-2n(CCCNC(C)C)c(=O)c2cc([N+](=O)[O-])ccc12`, for which the GI50 in the assay on HT29 colon was 0.0364 µM; in the assay on NCI-H522 lung it was 0.0233 µM; in the assay with SF-268 CNS it was 0.0488 µM; with NCI-H460 lung, 0.0191 µM; with LOX IMVI melanoma, 0.0189 µM; in the assay on OVCAR-8 ovarian it was 0.0468 µM. The GI50 was 0.195 µM with SK-MEL-2 melanoma and 0.134 µM with TK-10 renal. Moreover, the TGI was 1.01 µM in the assay with HT29 colon; 0.158 µM in the assay with NCI-H522 lung; 1.42 µM in the assay with SF-268 CNS; 0.126 µM with NCI-H460 lung; 0.104 µM in the assay with LOX IMVI melanoma; 0.541 µM in the assay on OVCAR-8 ovarian. Also, the TGI in the assay with SK-MEL-2 melanoma came out at 0.406 µM; in the assay on TK-10 renal, 0.318 µM.
With `Oc1c(I)cc(I)cc1CN(Cc1ccccn1)Cc1ccccn1`, the GI50 is 3.93 µM with HT29 colon; 2.04 µM with NCI-H522 lung; 0.575 µM with SF-268 CNS; 0.456 µM in the assay on NCI-H460 lung; 0.629 µM in the assay with LOX IMVI melanoma; 0.547 µM in the assay with OVCAR-8 ovarian. In addition, the results for the GI50 in the assay with SK-MEL-2 melanoma and in the assay with TK-10 renal were 2.08 µM and 0.367 µM, respectively. Besides, the TGI with HT29 colon is 18 µM; in the assay on NCI-H522 lung, 28 µM; in the assay with SF-268 CNS, 16.1 µM; in the assay on NCI-H460 lung it was 8.68 µM; in the assay with LOX IMVI melanoma, more than 33.8 µM; in the assay with OVCAR-8 ovarian it was 23.2 µM. Further, the TGI in the assay on SK-MEL-2 melanoma came out at 12.2 µM; with TK-10 renal, 11.7 µM.
As to `CCCCCCNCCCNc1c2ccccc2nc2cccc([N+](=O)[O-])c12`, the TGI is 0.0268 µM and 0.124 µM in the assay on HT29 colon; 0.0421 µM in the assay on NCI-H522 lung; 0.0522 µM and 0.405 µM with SF-268 CNS; 0.0218 µM in the assay on NCI-H460 lung; 0.0818 µM and 0.295 µM in the assay with LOX IMVI melanoma; 0.136 µM and 0.17 µM with OVCAR-8 ovarian. The TGI was 0.0331 µM and 0.0231 µM with SK-MEL-2 melanoma; 0.787 µM and 0.512 µM with TK-10 renal. In addition, the GI50 in the assay with SF-268 CNS was 0.038 µM; in the assay with LOX IMVI melanoma it was 0.044 µM; in the assay with TK-10 renal, 0.0705 µM.
As to `O=C(O)c1ccccc1Nc1ccc2nnc(-c3ccncc3)n2n1`, the GI50 is 5.66 µM in the assay on HT29 colon; 10.4 µM with NCI-H522 lung; 5.6 µM with SF-268 CNS; 4.27 µM in the assay on NCI-H460 lung; 1.97 µM in the assay with LOX IMVI melanoma; 8.1 µM with OVCAR-8 ovarian. Besides, the GI50 with SK-MEL-2 melanoma is 3.15 µM; with TK-10 renal, 7.13 µM. Besides, the TGI in the assay on HT29 colon was 24.2 µM; with NCI-H522 lung, 22.8 µM; in the assay on SF-268 CNS it was 29.2 µM; in the assay with NCI-H460 lung, 24 µM; in the assay on LOX IMVI melanoma, 4.1 µM; in the assay on OVCAR-8 ovarian, 41.7 µM. Further, the TGI was 9.08 µM in the assay on SK-MEL-2 melanoma and 25 µM with TK-10 renal.
For the compound `CCN(CC)CC[n+]1cc2cc(OC)c(OC)cc2c2ccc3cc4c(cc3c21)OCO4`, the GI50 is 0.321 µM in the assay with HT29 colon; 0.255 µM in the assay with NCI-H522 lung; 0.386 µM in the assay on SF-268 CNS; 0.288 µM in the assay with NCI-H460 lung; 0.355 µM with LOX IMVI melanoma; 0.314 µM in the assay on OVCAR-8 ovarian. Further, the GI50 in the assay on SK-MEL-2 melanoma is 1.64 µM; in the assay with TK-10 renal, 1.81 µM. The TGI worked out at 1.36 µM in the assay with HT29 colon; 1.05 µM in the assay with NCI-H522 lung; 2.71 µM in the assay on SF-268 CNS; 1.04 µM in the assay on NCI-H460 lung; 0.996 µM with LOX IMVI melanoma; 2.11 µM in the assay with OVCAR-8 ovarian. For the same compound, the TGI in the assay with SK-MEL-2 melanoma was found to be 4.59 µM; in the assay with TK-10 renal, 5.28 µM.
